Data: ChEMBL document CHEMBL1909046, “DrugMatrix in vitro pharmacology data”

How the values were obtained:
[1] = DRUGMATRIX: GABAA, Flunitrazepam, Central radioligand binding (ligand: [3H] Flunitrazepam); assay type: cell membranes, Rattus norvegicus, Wistar, Brain, Membrane; details: Not Active = under 50% inhibition at 10 µM
[2] = target: C-C chemokine receptor type 5 (Homo sapiens, UniProt P51681); assay type: cell membranes, Membrane; details: hek293; note: in other assays of this panel Not Active means under 50% inhibition at 10 µM
Sequence of C-C chemokine receptor type 5 (P51681 whole entry): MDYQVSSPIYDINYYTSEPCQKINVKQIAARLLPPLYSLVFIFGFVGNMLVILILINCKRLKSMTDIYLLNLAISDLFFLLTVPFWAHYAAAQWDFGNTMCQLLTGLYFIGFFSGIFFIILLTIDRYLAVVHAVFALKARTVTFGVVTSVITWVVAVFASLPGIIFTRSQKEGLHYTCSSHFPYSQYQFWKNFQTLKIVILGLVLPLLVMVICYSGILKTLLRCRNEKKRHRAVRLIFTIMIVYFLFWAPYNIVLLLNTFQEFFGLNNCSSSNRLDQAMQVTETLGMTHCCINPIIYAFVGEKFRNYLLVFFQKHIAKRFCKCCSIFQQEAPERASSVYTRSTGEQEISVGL

[3] = target: T1, Neuropeptide Y receptor type 1 (Homo sapiens, UniProt P25929); assay type: cell membranes, Membrane; details: sk-n-mc; note: in other assays of this panel Not Active means under 50% inhibition at 10 µM
T1 sequence (P25929 whole entry): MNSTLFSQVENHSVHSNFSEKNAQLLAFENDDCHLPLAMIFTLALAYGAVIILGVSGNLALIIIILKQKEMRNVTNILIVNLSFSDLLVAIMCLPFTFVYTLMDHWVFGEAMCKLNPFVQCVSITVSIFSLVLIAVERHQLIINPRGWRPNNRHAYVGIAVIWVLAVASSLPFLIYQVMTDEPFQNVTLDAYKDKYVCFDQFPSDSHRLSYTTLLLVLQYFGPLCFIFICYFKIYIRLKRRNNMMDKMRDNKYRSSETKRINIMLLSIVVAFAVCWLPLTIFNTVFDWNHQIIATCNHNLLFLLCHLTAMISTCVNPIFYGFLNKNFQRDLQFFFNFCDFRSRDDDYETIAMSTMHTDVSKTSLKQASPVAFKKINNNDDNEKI

Carbonic anhydrase 2 = Carbonic anhydrase 2 (Homo sapiens, UniProt P00918); assay: DRUGMATRIX: Carbonic Anhydrase II enzyme inhibition (substrate: 4-Nitrophenyl acetate (4-NPA)); assay type: tissue-based, Erythrocyte; details: erythrocyte; Not Active = under 50% inhibition at 10 µM
[4] = target: Tyrosine-protein kinase Lck (Homo sapiens, UniProt P06239); assay: DRUGMATRIX: Protein Tyrosine Kinase, LCK enzyme inhibition (substrate: Poly(Glu:Tyr)); assay type: cell-based, Insect cells; details: insect cells; Not Active = under 50% inhibition at 10 µM
Sequence of Tyrosine-protein kinase Lck (P06239 whole entry): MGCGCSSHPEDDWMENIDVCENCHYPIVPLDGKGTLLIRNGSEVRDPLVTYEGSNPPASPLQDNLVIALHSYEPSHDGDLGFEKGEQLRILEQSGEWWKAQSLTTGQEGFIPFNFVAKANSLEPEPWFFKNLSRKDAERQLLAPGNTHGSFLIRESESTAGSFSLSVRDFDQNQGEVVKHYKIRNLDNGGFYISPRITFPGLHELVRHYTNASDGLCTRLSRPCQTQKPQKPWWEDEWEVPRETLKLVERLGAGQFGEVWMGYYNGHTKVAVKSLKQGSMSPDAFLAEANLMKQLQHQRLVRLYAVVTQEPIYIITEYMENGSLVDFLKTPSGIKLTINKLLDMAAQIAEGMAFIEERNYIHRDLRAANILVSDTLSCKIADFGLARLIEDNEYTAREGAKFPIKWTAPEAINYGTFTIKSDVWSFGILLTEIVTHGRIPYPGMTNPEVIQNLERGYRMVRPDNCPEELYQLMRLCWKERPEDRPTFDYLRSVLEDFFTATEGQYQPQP

[5] = target: T2, C-X-C chemokine receptor type 1 (Homo sapiens, UniProt P25024); note: in other assays of this panel Not Active means under 50% inhibition at 10 µM
T2 sequence (P25024 whole entry): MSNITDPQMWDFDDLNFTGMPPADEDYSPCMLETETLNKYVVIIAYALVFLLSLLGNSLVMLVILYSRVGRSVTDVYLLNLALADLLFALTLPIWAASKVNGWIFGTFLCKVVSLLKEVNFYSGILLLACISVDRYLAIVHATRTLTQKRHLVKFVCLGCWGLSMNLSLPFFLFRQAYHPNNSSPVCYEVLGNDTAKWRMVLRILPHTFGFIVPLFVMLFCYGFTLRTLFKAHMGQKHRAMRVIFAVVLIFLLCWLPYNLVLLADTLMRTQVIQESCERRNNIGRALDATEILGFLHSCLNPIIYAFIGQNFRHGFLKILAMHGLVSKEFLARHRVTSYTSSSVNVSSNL

[6] = target: T3, Type-2 angiotensin II receptor (Homo sapiens, UniProt P50052); assay: biochemical; assay type: cell-based, CHO-K1; details: cho-k1; note: in other assays of this panel Not Active means under 50% inhibition at 10 µM
T3 sequence (P50052 whole entry): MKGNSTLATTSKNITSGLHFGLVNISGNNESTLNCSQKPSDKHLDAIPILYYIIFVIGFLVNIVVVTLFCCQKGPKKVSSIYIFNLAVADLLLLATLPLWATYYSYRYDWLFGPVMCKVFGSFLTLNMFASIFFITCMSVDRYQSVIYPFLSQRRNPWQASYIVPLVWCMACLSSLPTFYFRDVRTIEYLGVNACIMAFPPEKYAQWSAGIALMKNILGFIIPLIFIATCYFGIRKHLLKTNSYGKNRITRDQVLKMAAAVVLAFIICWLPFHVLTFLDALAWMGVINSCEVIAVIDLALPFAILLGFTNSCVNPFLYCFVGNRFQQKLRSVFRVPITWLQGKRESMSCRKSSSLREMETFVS

[7] = target: T4, Neuropeptide Y receptor type 2 (Homo sapiens, UniProt P49146); assay type: cell membranes, Membrane; details: kan-ts; note: in other assays of this panel Not Active means under 50% inhibition at 10 µM
T4 sequence (P49146 whole entry): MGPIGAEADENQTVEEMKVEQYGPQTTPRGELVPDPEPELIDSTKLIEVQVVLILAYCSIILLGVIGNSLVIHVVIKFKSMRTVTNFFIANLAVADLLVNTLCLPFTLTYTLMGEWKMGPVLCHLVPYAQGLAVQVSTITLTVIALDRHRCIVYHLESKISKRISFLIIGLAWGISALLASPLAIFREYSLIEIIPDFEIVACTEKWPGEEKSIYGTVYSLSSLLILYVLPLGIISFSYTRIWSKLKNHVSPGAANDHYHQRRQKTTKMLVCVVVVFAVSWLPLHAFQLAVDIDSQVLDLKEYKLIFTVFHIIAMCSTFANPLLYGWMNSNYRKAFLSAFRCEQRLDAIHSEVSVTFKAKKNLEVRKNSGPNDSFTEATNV

| Compound | IC50 [1] | Ki [1] | IC50 [2] | IC50 [3] | IC50 (Carbonic anhydrase 2) | IC50 [4] | IC50 [5] | IC50 [6] | IC50 [7] | IC50 ([1]; read-out: IC50) | Ki ([1]; read-out: Ki) | Ki [2] | Ki [3] | Ki (Carbonic anhydrase 2) | Ki [4] | Ki [5] | Ki [6] | Ki [7] |
| --- | --- | --- | --- | --- | --- | --- | --- | --- | --- | --- | --- | --- | --- | --- | --- | --- | --- | --- |
| CC(C)C[C@H]1C(=O)N2CCC[C@H]2[C@]2(O)O[C@](NC(=O)[C@@H]3C=C4c5cccc6[nH]cc(c56)C[C@H]4N(C)C3)(C(C)C)C(=O)N12 [ERGOCRYPTINE] | Not Active | Not Active | Not Active | Not Active | Not Active | Not Active | Not Active | Not Active | Not Active |  |  |  |  |  |  |  |  |  |
| Cc1cc(O)cc(C)c1Cl [CHLOROXYLENOL] | Not Active | Not Active | Not Active | Not Active | Not Active | Not Active | Not Active | Not Active | Not Active |  |  |  |  |  |  |  |  |  |
| CCOC(=O)c1ncn2c1CN(C)C(=O)c1cc(F)ccc1-2 [FLUMAZENIL] |  |  | Not Active | Not Active | Not Active | Not Active | Not Active | Not Active | Not Active | 3.87 nM | 3.15 nM |  |  |  |  |  |  |  |
| COBALTOUS CHLORIDE | Not Active | Not Active | Not Active | Not Active | Not Active | Not Active | Not Active | Not Active | Not Active |  |  | Not Active | Not Active | Not Active | Not Active | Not Active | Not Active | Not Active |
| COc1ccc2c(c1OC)C(=O)O[C@@H]2[C@H]1c2c(cc3c(c2OC)OCO3)CCN1C [NOSCAPINE] | Not Active | Not Active | Not Active | Not Active | Not Active | Not Active | Not Active | Not Active | Not Active |  |  |  |  |  |  |  |  |  |
| COLISTIN | Not Active | Not Active | Not Active | Not Active | Not Active | Not Active | Not Active | Not Active | Not Active |  |  | Not Active | Not Active | Not Active | Not Active | Not Active | Not Active | Not Active |
| CCN(C(C)=O)c1cccc(-c2ccnc3c(C#N)cnn23)c1 [ZALEPLON] |  |  | Not Active | Not Active | Not Active | Not Active | Not Active | Not Active | Not Active | 412 nM | 336 nM |  |  |  |  |  |  |  |
| CN1C(=O)CN=C(c2ccccc2)c2cc([N+](=O)[O-])ccc21 [NIMETAZEPAM] |  |  | Not Active | Not Active | Not Active | Not Active | Not Active | Not Active | Not Active | 104 nM | 85 nM |  |  |  |  |  |  |  |
| C[C@@H]1C/C=C/C=C/C=C/C=C/[C@H](O[C@@H]2O[C@H](C)[C@@H](O)[C@H](N)[C@@H]2O)C[C@@H]2O[C@](O)(C[C@@H](O)C[C@H]3O[C@@H]3/C=C/C(=O)O1)C[C@H](O)[C@H]2C(=O)O [NATAMYCIN] | Not Active | Not Active | Not Active | Not Active | Not Active | Not Active | Not Active | Not Active | Not Active |  |  |  |  |  |  |  |  |  |
| ClC(Cl)(Cl)Cl [CARBON TETRACHLORIDE] | Not Active | Not Active | Not Active | Not Active | Not Active | Not Active | Not Active | Not Active | Not Active |  |  |  |  |  |  |  |  |  |
| NC12CC3CC(CC(C3)C1)C2 [AMANTADINE] | Not Active | Not Active | Not Active | Not Active | Not Active | Not Active | Not Active | Not Active | Not Active |  |  |  |  |  |  |  |  |  |
| CC(C)c1c(C(=O)Nc2ccccc2)c(-c2ccccc2)c(-c2ccc(F)cc2)n1CC[C@@H](O)C[C@@H](O)CC(=O)O [ATORVASTATIN] | Not Active | Not Active | Not Active | Not Active | Not Active | Not Active | Not Active | Not Active | Not Active |  |  |  |  |  |  |  |  |  |
| CN(C)CCC=C1c2ccccc2CCc2ccccc21 [AMITRIPTYLINE] | Not Active | Not Active | Not Active | Not Active | Not Active | Not Active | Not Active | Not Active | Not Active |  |  |  |  |  |  |  |  |  |
| C[C@]12CC[C@H]3[C@@H](CCC4=CC(=O)CC[C@@H]43)[C@@H]1CC[C@@H]2O [NANDROLONE] | Not Active | Not Active | Not Active | Not Active | Not Active | Not Active | Not Active | Not Active | Not Active |  |  |  |  |  |  |  |  |  |
| N=C(N)c1ccc(OCCCCCOc2ccc(C(=N)N)cc2)cc1 [PENTAMIDINE] | Not Active | Not Active | Not Active | Not Active | Not Active | Not Active | Not Active | Not Active | Not Active |  |  |  |  |  |  |  |  |  |
| CCOc1nc2cccc(C(=O)O)c2n1Cc1ccc(-c2ccccc2-c2nnn[nH]2)cc1 | Not Active | Not Active | Not Active | Not Active | Not Active | Not Active | Not Active | Not Active | Not Active |  |  |  |  |  |  |  |  |  |
| COc1cccc2c1C(=O)c1c(O)c3c(c(O)c1C2=O)C[C@@](O)(C(C)=O)C[C@@H]3O[C@H]1C[C@H](N)[C@H](O)[C@H](C)O1 [DAUNORUBICIN] | Not Active | Not Active | Not Active | Not Active | Not Active | Not Active | Not Active | Not Active | Not Active |  |  |  |  |  |  |  |  |  |
| CC(O)(P(=O)(O)O)P(=O)(O)O [ETIDRONIC ACID] | Not Active | Not Active | Not Active | Not Active | Not Active | Not Active | Not Active | Not Active | Not Active |  |  |  |  |  |  |  |  |  |
| CC(=O)Oc1ccccc1C(=O)O [ASPIRIN] | Not Active | Not Active | Not Active | Not Active | Not Active | Not Active | Not Active | Not Active | Not Active |  |  |  |  |  |  |  |  |  |
| O=c1[nH]c(=O)n([C@H]2C[C@H](O)[C@@H](CO)O2)cc1F [FLOXURIDINE] | Not Active | Not Active | Not Active | Not Active | Not Active | Not Active | Not Active | Not Active | Not Active |  |  |  |  |  |  |  |  |  |
| O=C(O)CC(O)(CC(=O)O)C(=O)O [CITRIC ACID] | Not Active | Not Active | Not Active | Not Active | Not Active | Not Active | Not Active | Not Active | Not Active |  |  |  |  |  |  |  |  |  |
